# From patent US4073888A, “Chlorine dioxide and quaternary ammonium salts as sterilizing agents” (priority 1975, dated 1978)
# Entries after “also recorded” stand apart in the source; their conditions may differ.
# Tests used:
# spores [1] = details: cited from earlier work
# [2] = cited from earlier work
# spores [3] = experiment: effectiveness of quaternary salts with chlorine dioxide; assay type: cell-based; details: for results with chlorine dioxide in the testing embodiments: employed with chlorine dioxide; for effectiveness with chlorine dioxide: used with chlorine dioxide for the purposes of the invention
# Bacillus subtilis [4] = experiment: Comparative Sporicidal Test, didecyl dimethyl ammonium chloride alone; assay type: cell-based, Bacillus subtilis 19659; details: ten minutes contact; for Number Positive, Tube 1 (original culture) / Number Positive, Tube 2 (subculture): of 10
# Experimental: For further comparative purposes it was also decided to test the sporicidal activity of didecyl dimethyl ammonium chloride used alone and employing the bacteria and method described below.
# Porcelain penicylinders (Fisher Scientific #7-907)
# Incubation Time and Temperature
# In the above Table 4, Tube 1 is the original culture and Tube 2 is the subculture of Tube 1.
# The active ingredient in these tests was didecyl dimethyl ammonium chloride.
# In the above Table 4, the identification of the 1% solution and 0.4% solution refers to the level of total quaternary compound being tested.
# [5] = solutions; cited from earlier work
# Bacillus subtilis [6] = experiment: Comparative Sporicidal Test, chlorine dioxide alone; details: dilutions 1:10 and 1:25
smiles,measurement,setting,value
O=CCCCC=O [glutaraldehyde],time required to kill spores,spores [1]; commercial sporicidal composition,10 h
same,shelf-life after activation,[2],14 days
CCCCCCCCCC[N+](C)(C)CCCCCCCC.[Cl-] [Octyl-decyl dimethyl ammonium chloride],results with chlorine dioxide in the testing embodiments,spores [3],outstanding results
"CCCCCCCCCC[N+](C)(C)CCCCCCCCCC.[Cl-] [Didecyl Dimethyl Ammonium Chloride, didecyl dimethyl ammonium chloride]",results with chlorine dioxide in the testing embodiments,spores [3],outstanding results
same,effectiveness with chlorine dioxide,spores [3],highly effective
same,"Number Positive, Tube 1 (original culture)",Bacillus subtilis [4]; 0.4% solution,0
same,"Number Positive, Tube 2 (subculture)",Bacillus subtilis [4]; 0.4% solution,10
same,"Number Positive, Tube 1 (original culture)",Bacillus subtilis [4]; 1% solution,0
same,"Number Positive, Tube 2 (subculture)",Bacillus subtilis [4]; 1% solution,9
same,sporicidal activity (conclusion),"Bacillus subtilis [4]; used alone, 1% and 0.4%",poor sporicidal activity; also recorded: only a static effect and not a cidal effect; also recorded: not sporicidal
"CCCCCCCCCCCCCCCC[N+](C)(C)Cc1ccccc1.[Cl-] [hexadecyldimethyl benzyl ammonium chloride, reference compound]",effectiveness with chlorine dioxide,spores [3],ineffective
[O][Cl+][O-] [chlorine dioxide],sporicidal activity,spores [1]; alone in aqueous solutions,not sporicidal
same,"bactericidal, fungicidal, taste and odor control properties",[5],"excellent bactericidal, fungicidal, and taste and odor control properties"
same,outcome before 21 day observation period,Bacillus subtilis [6],failed completely
same,sporicidal activity (conclusion),Bacillus subtilis [6]; 2-12 hours contact,does not show satisfactory sporicidal activity; also recorded: failure as a sporicide
same,sporicidal test outcome,Bacillus subtilis [6]; twelve hours contact,not passed
"CCCCCCCCCCCC(=O)OCCNC(=O)C[n+]1ccccc1 [lauric acid ester of colaminoformylmethyl pyridinium chloride, reference compound]",effectiveness with chlorine dioxide,spores [3],ineffective
CCCCCCCCCCCC[N+](C)(C)CCCCCCCC.[Cl-] [Octyl-dodecyl dimethyl ammonium chloride],results with chlorine dioxide in the testing embodiments,spores [3],outstanding results
same,effectiveness with chlorine dioxide,spores [3],highly effective
"CCCCCCCCCCCCCCCC[N+](C)(C)C.[Br-] [cetyl trimethyl ammonium bromide, reference compound]",effectiveness with chlorine dioxide,spores [3],ineffective
CCCCCCCCCCCC[N+](C)(C)CCCCCCCCCCCC.[Cl-] [Didodecyl dimethyl ammonium chloride],results with chlorine dioxide in the testing embodiments,spores [3],outstanding results
same,effectiveness with chlorine dioxide,spores [3],highly effective
